Consider 26 compounds from patent US9981916B2 (Genentech, Inc., priority 2013, dated 2018).

The assay concerns the target T1, RORc ligand binding domain (Homo sapiens, UniProt P51449).
T1 construct: host or cells: E. coli
T1 sequence (P51449 269-508 limits assumed): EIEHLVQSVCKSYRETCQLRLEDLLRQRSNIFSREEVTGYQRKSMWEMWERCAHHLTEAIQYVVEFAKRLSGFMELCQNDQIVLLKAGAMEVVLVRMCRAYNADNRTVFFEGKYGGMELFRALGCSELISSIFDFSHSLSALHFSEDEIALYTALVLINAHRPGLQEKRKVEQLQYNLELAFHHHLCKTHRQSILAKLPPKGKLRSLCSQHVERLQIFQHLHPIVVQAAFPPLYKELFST
Kind of assay: In vitro RORc ligand binding assay (25-[3H]hydroxycholesterol displacement, filter binding). Particulars: 6 nM 25-[3H]hydroxycholesterol, 0.6 ug/mL RORc receptor, 3 h at 25° C. The procedure, abridged: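 Filter-binding displacement of 6 nM 25-[3H]hydroxycholesterol from RORc receptor (0.6 ug/mL) in 50 mM HEPES pH 7.4, 150 mM NaCl, 5 mM MgCl2, 1 mM DTT, 0.01% BSA, 5% DMSO; 3 h at 25° C. NSB defined with 1 uM 25-hydroxycholesterol; scintillation counting gave Kiapp, IC50 or % inhibition (screening at 1 and 10 uM).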
For the compound `CC1(C)[C@@H]2CC[C@@]1(C(=O)N1CC3CC1C3)c1nnc(-c3c(F)cccc3F)cc12` [Example 214, 2-azabicyclo[2.1.1]hexan-2-yl((5S,8S)-3-(2,6-difluorophenyl)-9,9-dimethyl-5,6,7,8-tetrahydro-5,8-methanocinnolin-8-yl)methanone], the IC50 stood at 220 nM. As to `CC1(C)[C@@H]2CC[C@@]1(C(=O)N1CC[C@H](CO)C1)c1nnc(-c3c(F)cccc3F)cc12` [Example 216, ((5S,8S)-3-(2,6-difluorophenyl)-9,9-dimethyl-5,6,7,8-tetrahydro-5,8-methanocinnolin-8-yl)((S)-3-(hydroxymethyl)pyrrolidin-1-yl)methanone], the IC50 amounted to 830 nM. In the case of `CC1(C)[C@@H]2CC[C@@]1(C(=O)N1CC3COCC3C1)c1nnc(-c3c(F)cccc3F)cc12` (stereo partly drawn) [Example 217, ((5S,8S)-3-(2,6-difluorophenyl)-9,9-dimethyl-5,6,7,8-tetrahydro-5,8-methanocinnolin-8-yl)(tetrahydro-1H-furo[3,4-c]pyrrol-5(3H)-yl)methanone] it was 144 nM; in that of `CC1(C)[C@@H]2CC[C@@]1(C(=O)N1CCC3(COC3)C1)c1nnc(-c3c(F)cccc3F)cc12` [Example 218, ((5S,8S)-3-(2,6-difluorophenyl)-9,9-dimethyl-5,6,7,8-tetrahydro-5,8-methanocinnolin-8-yl)(2-oxa-6-azaspiro[3.4]octan-6-yl)methanone], 2440 nM. `CC1(O)CCN(C(=O)[C@]23CC[C@H](c4cc(-c5c(F)cccc5F)nnc42)C3(C)C)C1` (stereo partly drawn) [Example 219, ((5S,8S)-3-(2,6-difluorophenyl)-9,9-dimethyl-5,6,7,8-tetrahydro-5,8-methanocinnolin-8-yl)(3-hydroxy-3-methylpyrrolidin-1-yl)methanone] gave an IC50 of 1100 nM. `C[C@H]1CN(C(=O)[C@]23CC[C@H](c4cc(-c5c(F)cccc5F)nnc42)C3(C)C)C[C@@H]1O` [Example 220, ((5S,8S)-3-(2,6-difluorophenyl)-9,9-dimethyl-5,6,7,8-tetrahydro-5,8-methanocinnolin-8-yl)((3R,4S)-3-hydroxy-4-methylpyrrolidin-1-yl)methanone] displayed an IC50 of 2940 nM. `CC1(C)[C@@H]2CC[C@@]1(C(=O)N1CC3(CCCO3)C1)c1nnc(-c3c(F)cccc3F)cc12` [Example 221, ((5S,8S)-3-(2,6-difluorophenyl)-9,9-dimethyl-5,6,7,8-tetrahydro-5,8-methanocinnolin-8-yl)(5-oxa-2-azaspiro[3.4]octan-2-yl)methanone] had an IC50 of 612 nM. `CNC(=O)[C@H]1[C@@H]2CN(C(=O)[C@]34CC[C@H](c5cc(-c6c(F)cccc6F)nnc53)C4(C)C)C[C@@H]21` [Example 222, (1R,5S,6S)-3-((5S,8S)-3-(2,6-difluorophenyl)-9,9-dimethyl-5,6,7,8-tetrahydro-5,8-methanocinnoline-8-carbonyl)-N-methyl-3-azabicyclo[3.1.0]hexane-6-carboxamide] returned an IC50 of 1430 nM.

`CC1(C)[C@@H]2CC[C@@]1(C(=O)N1CCC3CC31)c1nnc(-c3c(F)cccc3F)cc12` (stereo partly drawn) [Example 223, 2-azabicyclo[3.1.0]hexan-2-yl((5S,8S)-3-(2,6-difluorophenyl)-9,9-dimethyl-5,6,7,8-tetrahydro-5,8-methanocinnolin-8-yl)methanone] returned an IC50 of 196 nM. In the case of `CC1(C)[C@@H]2CC[C@@]1(C(=O)N1CCCC1C(F)(F)F)c1nnc(-c3c(F)cccc3F)cc12` (stereo partly drawn) [Example 224, ((5S,8S)-3-(2,6-difluorophenyl)-9,9-dimethyl-5,6,7,8-tetrahydro-5,8-methanocinnolin-8-yl)(2-(trifluoromethyl)pyrrolidin-1-yl)methanone] it was 327 nM; in that of `CC(=O)N[C@H]1CCN(C(=O)[C@]23CC[C@H](c4cc(-c5c(F)cccc5F)nnc42)C3(C)C)C1` [Example 225, N-((S)-1-((5S,8S)-3-(2,6-difluorophenyl)-9,9-dimethyl-5,6,7,8-tetrahydro-5,8-methanocinnoline-8-carbonyl)pyrrolidin-3-yl)acetamide], 2720 nM.

`Cn1nc([C@@]23CC[C@@H](c4cc(-c5c(F)cccc5F)nnc42)C3(C)C)oc1=O` [Example 226, 5-((5R,8R)-3-(2,6-difluorophenyl)-9,9-dimethyl-5,6,7,8-tetrahydro-5,8-methanocinnolin-8-yl)-3-methyl-1,3,4-oxadiazol-2(3H)-one]: the IC50 was 124 nM.

`Cc1ncoc1[C@]12CC[C@H](c3cc(-c4c(F)cccc4F)nnc31)C2(C)C` [Example 227, 5-((5S,8S)-3-(2,6-difluorophenyl)-9,9-dimethyl-5,6,7,8-tetrahydro-5,8-methanocinnolin-8-yl)-4-methyloxazole]: the IC50 came to 139 nM.

The compound `Cc1ocnc1[C@]12CC[C@H](c3cc(-c4c(F)cccc4F)nnc31)C2(C)C` [Example 228, 4-((5S,8R)-3-(2,6-difluorophenyl)-9,9-dimethyl-5,6,7,8-tetrahydro-5,8-methanocinnolin-8-yl)-5-methyloxazole] showed an IC50 of 137 nM. The result for `Cc1nn(C)/c(=N\[C@@]23CC[C@@H](c4cc(-c5ccccc5F)nnc42)C3(C)C)o1` [Example 229, (5R,8R,E)-N-(3,5-dimethyl-1,3,4-oxadiazol-2(3H)-ylidene)-3-(2-fluorophenyl)-9,9-dimethyl-5,6,7,8-tetrahydro-5,8-methanocinnolin-8-amine] reads 1530 nM; that for `Cc1nnc(N(C)[C@@]23CC[C@@H](c4cc(-c5ccccc5F)nnc42)C3(C)C)o1` [Example 230, N-((5R,8R)-3-(2-fluorophenyl)-9,9-dimethyl-5,6,7,8-tetrahydro-5,8-methanocinnolin-8-yl)-N,5-dimethyl-1,3,4-oxadiazol-2-amine], 1820 nM. `CC1(C)[C@@H]2CC[C@@]1(C(=O)N1C[C@@H]3C[C@H]1CO3)c1nnc(-c3c(F)cccc3F)cc12` [Example 231, (1S,4S)-2-oxa-5-azabicyclo[2.2.1]heptan-5-yl((5S,8S)-3-(2,6-difluorophenyl)-9,9-dimethyl-5,6,7,8-tetrahydro-5,8-methanocinnolin-8-yl)methanone] came in with an IC50 of 241 nM. The compound `CC1(C)[C@@H]2CC[C@@]1(C(=O)N1CC(n3cccn3)C1)c1nnc(-c3c(F)cccc3F)cc12` [Example 232, (3-(1H-pyrazol-1-yl)azetidin-1-yl)((5S,8S)-3-(2,6-difluorophenyl)-9,9-dimethyl-5,6,7,8-tetrahydro-5,8-methanocinnolin-8-yl)methanone] showed an IC50 of 232 nM. As for `CC1(C)[C@@H]2CC[C@@]1(C(=O)N1CC(CO)C1)c1nnc(-c3c(F)cccc3F)cc12` [Example 233, ((5S,8S)-3-(2,6-difluorophenyl)-9,9-dimethyl-5,6,7,8-tetrahydro-5,8-methanocinnolin-8-yl)(3-(hydroxymethyl)azetidin-1-yl)methanone], the IC50 was determined as 819 nM. `C[C@H]1CCCN1C(=O)[C@]12CC[C@H](c3cc(-c4c(F)cccc4F)nnc31)C2(C)C` [Example 234, ((5S,8S)-3-(2,6-difluorophenyl)-9,9-dimethyl-5,6,7,8-tetrahydro-5,8-methanocinnolin-8-yl)((S)-2-methylpyrrolidin-1-yl)methanone] gave an IC50 of 238 nM. The result for `CC(C)OC1CN(C(=O)[C@]23CC[C@H](c4cc(-c5c(F)cccc5F)nnc42)C3(C)C)C1` [Example 235, ((5S,8S)-3-(2,6-difluorophenyl)-9,9-dimethyl-5,6,7,8-tetrahydro-5,8-methanocinnolin-8-yl)(3-isopropoxyazetidin-1-yl)methanone] reads 844 nM; that for `CC1(C)[C@@H]2CC[C@@]1(C(=O)N1CC[C@@H](C#N)C1)c1nnc(-c3c(F)cccc3F)cc12` [Example 236, (R)-1-((5S,8S)-3-(2,6-difluorophenyl)-9,9-dimethyl-5,6,7,8-tetrahydro-5,8-methanocinnoline-8-carbonyl)pyrrolidine-3-carbonitrile], 405 nM; that for `CC1(C)CCN(C(=O)[C@]23CC[C@H](c4cc(-c5c(F)cccc5F)nnc42)C3(C)C)C1` [Example 237, ((5S,8S)-3-(2,6-difluorophenyl)-9,9-dimethyl-5,6,7,8-tetrahydro-5,8-methanocinnolin-8-yl)(3,3-dimethylpyrrolidin-1-yl)methanone], 498 nM.

With `CC1(C)[C@@H]2CC[C@@]1(C(=O)N1CC[C@@H](O)C1)c1nnc(-c3c(F)cccc3F)cc12` [Example 238, ((5S,8S)-3-(2,6-difluorophenyl)-9,9-dimethyl-5,6,7,8-tetrahydro-5,8-methanocinnolin-8-yl)((R)-3-hydroxypyrrolidin-1-yl)methanone], the IC50 stood at 236 nM. Consider `CN1C[C@@H]2C[C@H]1CN2C(=O)[C@]12CC[C@H](c3cc(-c4c(F)cccc4F)nnc31)C2(C)C` [Example 239, ((5S,8S)-3-(2,6-difluorophenyl)-9,9-dimethyl-5,6,7,8-tetrahydro-5,8-methanocinnolin-8-yl)((1S,4S)-5-methyl-2,5-diazabicyclo[2.2.1]heptan-2-yl)methanone], for which the IC50 turned out to be 892 nM. On to `CC1(C)[C@@H]2CC[C@@]1(C(=O)N1CC3(CCC3)C1)c1nnc(-c3c(F)cccc3F)cc12` [Example 240, ((5S,8S)-3-(2,6-difluorophenyl)-9,9-dimethyl-5,6,7,8-tetrahydro-5,8-methanocinnolin-8-yl)(2-azaspiro[3.3]heptan-2-yl)methanone], for which the IC50 amounted to 217 nM.
